Results: PMC12284513, “Unique structural features define the decarboxylation activity of a CYP152 fatty acid decarboxylase from Lacicoccus alkaliphilus” (The Journal of Biological Chemistry, 2025)
Values joined by “and” are separate entries in the source; they are usually repeats but may differ in a detail not shown here. Identical values can stand only once. Like-named read-outs stand apart in the source and are kept apart here.

Columns and labels:
[1] = tested on: OleTJE L176I; assay: Fatty acid bioconversion with H2O2 as co-substrate (alkene by GC-MS, hydroxy products by HPLC-MS); format: biochemical, Jeotgalicoccus sp. 8456; settings: 200 μM substrate, 400 μM H2O2
Procedure: A reaction was typically quenched by adding 2-fold reaction volume of ethyl acetate which contained 30 μM of tetradecane as an internal standard. The reaction mixtures were vortexed for 1 min and then centrifuged at 12,000 rpm, 4 °C for 10 min to separate an organic and an aqueous phase. The organic phase was injected into an Agilent gas chromatography system (GC-MS) (Agilent 7890B equipped with Agilent 5977B MSD) equipped with a HP5-MS column (30 m × 0.25 mm × […]) (Agilent), and helium was used as a carrier gas. The oven conditions for C10FA and 1-nonene (C9 alkene) were ramped up from 60 to 240 °C with a rate of 19 ° C min^−1 and held at 240 °C for 1 min. […] For C18FA and 1-heptadecene (C17 alkene), the oven was ramped up from 60 to 250 °C with a rate of 22 °C min^−1 and hold at 250 °C for 4 min. For C20FA and 1-nonadecene (C19 alkene), the oven was ramped up from 100 to 250 °C with a rate of 23 °C min^−1 and held at 250 °C for 6 min. The response of target compounds was normalized with signals of the internal standard. The concentration of each compound was calculated based on a standard calibration curve.
For analyzing hydroxylated products of fatty acids, the reactions were quenched by adding an equal volume of acetonitrile, centrifuged, and filtrated. The analytes (10 μl) were injected into a liquid chromatography coupled with diode array and single quadrupole mass spectroscopy detection (LC-DAD/MS) (Agilent 1290 Infinity II LC System equipped with DAD, Single Quadrupole Mass Spectrometers system). A Zorbax eclipse plus C18 column (5 μm, 4.6 × 250 mm) (Agilent Technology) was used for separation. The mobile phase system A was water with 0.1% (v/v) formic acid, and system B was acetonitrile with 0.1% (v/v) formic acid.
All fatty acids were prepared in absolute EtOH at 20 mM as stock solutions. The reaction was carried out in 50 mM NaH2PO4 buffer with 300 mM NaCl, pH 7.5, with 2.5 or 10% (v/v) of EtOH, 200 μM of a substrate, and 400 μM of H2O2. The reactions were performed at 25 °C for 1 h, and then the alkene product was measured using GC-MS after the reactions were quenched and extracted with two-fold volume of ethyl acetate.
(§1) Site-directed mutagenesis of I178L of OleTLA and […] of OleTJE was done with overlaping PCR that used OleTLA or OleTJE plasmids as templates (Table S4). The PCR products were treated with DpnI in cut smart buffer at 37 °C for 16 h, transformed into E. coli XL−1 blue competent cells and grown at 37 °C on LB agar containing 50 μg/ml ampicillin. The plasmids of selected colonies were extracted for sequence verification. The plasmid containing the correct sequence was transformed into E. coli BL21 (DE3) for enzyme expression. The expression and purification methods of variants were the same as those of wild-type OleTLA and OleTJE.

[2] = biological target: T1, OleTJE (Jeotgalicoccus sp. ATCC 8456, UniProt E9NSU2); parameters: method as in PMID 28276499; settings: C14FA decarboxylation; cited from earlier work
T1 sequence (E9NSU2 1-422): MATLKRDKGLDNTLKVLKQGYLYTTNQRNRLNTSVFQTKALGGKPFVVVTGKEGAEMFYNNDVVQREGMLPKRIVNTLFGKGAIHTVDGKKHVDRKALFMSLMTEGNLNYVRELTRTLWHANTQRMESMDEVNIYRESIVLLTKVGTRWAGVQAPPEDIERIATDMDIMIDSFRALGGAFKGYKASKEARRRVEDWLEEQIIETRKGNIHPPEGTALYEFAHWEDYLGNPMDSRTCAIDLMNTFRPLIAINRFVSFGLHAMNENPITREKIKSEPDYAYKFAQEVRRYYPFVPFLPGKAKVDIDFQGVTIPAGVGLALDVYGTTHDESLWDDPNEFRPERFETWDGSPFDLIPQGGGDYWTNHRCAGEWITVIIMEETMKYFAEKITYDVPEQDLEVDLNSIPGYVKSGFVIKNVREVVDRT

[3] = biological target: T2, OleTLA (Lacicoccus alkaliphilus, UniProt A0A1M7CBV6); assay: Steady-state kinetics of C16FA decarboxylation with H2O2, C15 alkene by GC-MS; format: biochemical; settings: for kcat / Km: 400 μM H2O2, pH 7.5, 25 °C
T2 sequence (A0A1M7CBV6 1-424): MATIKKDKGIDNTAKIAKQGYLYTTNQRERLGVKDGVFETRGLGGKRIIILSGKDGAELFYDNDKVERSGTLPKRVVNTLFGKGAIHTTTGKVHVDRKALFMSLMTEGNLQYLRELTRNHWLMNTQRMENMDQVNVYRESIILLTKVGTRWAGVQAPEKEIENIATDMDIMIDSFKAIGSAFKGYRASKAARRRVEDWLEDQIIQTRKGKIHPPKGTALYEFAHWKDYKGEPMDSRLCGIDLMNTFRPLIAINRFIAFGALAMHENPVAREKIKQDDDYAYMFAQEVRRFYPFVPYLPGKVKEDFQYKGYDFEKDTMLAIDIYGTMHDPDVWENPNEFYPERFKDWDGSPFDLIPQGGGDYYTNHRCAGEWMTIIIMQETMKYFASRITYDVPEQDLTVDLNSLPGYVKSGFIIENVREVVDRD
Procedure: (§2) Under specific times between 0.1 to 2 min, the reaction samples were taken and quenched by adding an equal volume of ethyl acetate. The ethyl acetate layer would contain the C15 alkene product, which was measured using GC-MS. Values of initial rates were plotted against substrate concentrations to analyze for Km and Vmax values using the Michaelis–Menten equation by GraphPad Prism software version 10.

[4] = biological target: T1, OleTJE; assay: as above; format: biochemical, Jeotgalicoccus sp. 8456; settings: for Km / kcat: 400 μM H2O2, pH 7.5, 25 °C
Procedure: as §2

[5] = biological target: OleTLA I178L (Lacicoccus alkaliphilus, UniProt A0A1M7CBV6, I178L); assay: as above; format: biochemical; settings: 10% (v/v) EtOH, 400 μM H2O2, pH 7.5, 25 °C
Procedure: as §2, §1

[6] = biological target: T2, OleTLA; assay: Equilibrium substrate binding by heme spectral change (absorbance at 390 nm); settings: read-out: Kd from absorbance changes at 390 nm
[7] = biological target: T2, OleTLA; assay: Substrate binding by isothermal titration calorimetry (ITC); settings: pH 7.5, 25 °C
Procedure: (§3) The enzyme solution was filled into a syringe while the C16FA solution was filled into the ITC cell. The reactions were constantly stirred at 750 rpm while controlling the temperature at 25 °C during titration. A total of 19 enzyme injections were added into the substrate solution. […] For the other 18 injections, 2 μl of the enzyme solution was added with […] to ensure that the conditions are under equilibrium. The data were processed and analyzed using the Microcal PEAQ-ITC analysis software to calculate the Kd value based on a single-site binding model.

[8] = biological target: T1, OleTJE; assay: as above; parameters: species or system Jeotgalicoccus sp. 8456; settings: pH 7.5, 25 °C
Procedure: as §3, with “The” for “The enzyme solution was filled into a syringe while the C16FA solution was filled into the ITC cell. The”

In the case of CCCCCCCCCCCCCC(=O)O [C14FA, tetradecanoic acid], the “Decarboxylation activity of OleTJE L176I compared to that of OleTJE wild type” value [1] is given as “less than 1%” and the kcat [2] is given as 1.18 s⁻¹.
In the case of CCCCCCCCCCCCCCCC(=O)O [C16FA, hexadecanoic acid], the “Enhancement of kcat in 10% (v/v) EtOH compared to 2.5% (v/v) EtOH” value [3] is reported as “around 4.3 fold”, the kcat ([3]; 2.5% (v/v) EtOH) is reported as 0.343 ± 0.0083 s⁻¹ and the Km ([3]; 2.5% (v/v) EtOH, read-out: KM) is reported as 5.4 ± 0.6 µM. For the same compound, the Km ([3]; 10% (v/v) EtOH) was 16.7 ± 0.6 µM, the kcat ([3]; 10% (v/v) EtOH) was 1.47 ± 0.0267 s⁻¹ and the “Decarboxylation activity of OleTJE L176I compared to that of OleTJE wild type” value [1] was “less than 5%”. For the same compound, the “Enhancement of kcat in 10% (v/v) EtOH compared to 2.5% (v/v) EtOH” value [4] was ~1.4 fold, the Km ([4]; 2.5% (v/v) EtOH) was 8.6 ± 1.4 µM and the kcat ([4]; 2.5% (v/v) EtOH) was 0.647 ± 0.015 s⁻¹. For the same compound, the Km ([4]; 10% (v/v) EtOH) was 9.6 ± 0.6 µM, the kcat ([4]; 10% (v/v) EtOH) was 0.918 ± 0.0033 s⁻¹ and the Km [5] was 25 ± 0.6 µM. For the same compound, the kcat [5] was 1.6 ± 0.0417 s⁻¹, the Kd ([6]; 2.5% (v/v) EtOH) was 0.32 µM and the Kd ([6]; 10% (v/v) EtOH) was 0.53 µM. It also gave a Kd ([6]; buffer (0% (v/v) EtOH)) of 0.37 µM, a Kd ([7]; 2.5% (v/v) EtOH) of 0.95 ± 0.14 µM and a TΔS ([7]; 2.5% (v/v) EtOH) of 38.10 ± 2.65 kcal/mol. For the same compound, the ΔG ([7]; 2.5% (v/v) EtOH) was -8.22 ± 0.08 kcal/mol, the ΔH ([7]; 2.5% (v/v) EtOH) was 29.97 kcal/mol and 29.97 ± 2.93 kcal/mol and the Kd ([7]; 10% (v/v) EtOH) was 1.26 ± 0.23 µM. For the same compound, the TΔS ([7]; 10% (v/v) EtOH) was 58.93 ± 2.00 kcal/mol, the ΔG ([7]; 10% (v/v) EtOH) was -8.06 ± 0.11 kcal/mol and the ΔH ([7]; 10% (v/v) EtOH) was 50.83 kcal/mol and 50.83 ± 2.10 kcal/mol. For the same compound, the Kd ([8]; 2.5% (v/v) EtOH) was 1.93 ± 0.16 µM, the TΔS ([8]; 2.5% (v/v) EtOH) was 16.13 ± 2.15 kcal/mol and the ΔG ([8]; 2.5% (v/v) EtOH) was -7.78 ± 0.05 kcal/mol. The Kd ([8]; 10% (v/v) EtOH) was 0.44 ± 0.01 µM, the TΔS ([8]; 10% (v/v) EtOH) was -5.15 ± 2.74 kcal/mol and the ΔG ([8]; 10% (v/v) EtOH) was -8.67 ± 0.01 kcal/mol. The ΔH ([8]; 10% (v/v) EtOH) was -12.19 ± 5.11 kcal/mol.
